The record followed here is a melting point compilation (Tetko et al.; mined from patent text by program, amines drawn as free bases though some values may be those of a salt).

As to `CCCC(=O)C(=C1NCCCS1)[N+](=O)[O-]`, the melting point was 54 to 58.5 °C. For `O=C1CC(c2ccc(F)cc2)Cc2occ(C(F)(F)F)c21` (centres undefined), the melting point fell in the range of 105 to 106 °C.

In turn, `CCOc1ccc2cc(-c3nn(C(C)c4oc5ccccc5c(=O)c4-c4cccc(F)c4)c4ncnc(N)c34)ccc2c1` (centres undefined) registered a melting point of 286 to 290 °C. With `O=[N+]([O-])C=C1CN=C(c2ccccc2)c2cc(Cl)ccc2N1` the figure was 184 to 186 °C; with `CCCn1c2c(c3c4c(-c5ccccc5)csc4ccc31)CN(C)CC2`, 156 °C. The value for `Cc1c(-c2ncc(Cl)cc2F)nn(C)c1C(N)=O` was 201 to 204 °C. The value for `CSc1nnc(C(C)C2CC2)c(=O)n1N` (centres undefined) was 111 to 113 °C; that for `CCCCCCCC/C=C\c1ccc(C(=O)NOCc2ccccc2)cc1` was 70 to 71 °C; that for `CNC(=O)c1ccccc1Nc1nc(Nc2ccc3c(c2)COCC2CCCCN32)ncc1Cl` (centres undefined) was 220 to 221 °C. `CC1=C2OCOC2CC(C)(C)C1=O` (centres undefined) came in with a melting point of 55.5 to 57 °C. The value for `Clc1ccc2c(NCCC34C=CCN3CCC4)ccnc2c1` (centres undefined) was 124 to 125 °C; that for `CCN(CC)c1ccc(Nc2ncc3ccc(=O)n(CC)c3n2)cc1` was 108 to 109 °C; that for `COc1ccc(C2CCC(=O)N(CCN(C)C)c3ccccc3C2=O)cc1` (centres undefined) was 116 to 117 °C. `Cc1ccc2c(c1)c(-c1ccc(F)cc1)c(C)n2-c1ccncc1` showed a melting point of 172 to 174 °C. The value for `CCOC(=O)c1nc(C)n(Cc2ccc([N+](=O)[O-])cc2)c1C(=O)OCC` was 109 °C; that for `COc1cc2c(cc1Nc1ncc(Cl)c(Nc3ccc(OC)c4c3C(=O)N(C)C4)n1)CCN(CC(=O)N(C)C)CC2` was 202 to 203 °C.

`COc1ccc(-c2sc3cc(OC)ccc3c2C(=O)c2ccccc2)cc1` registered a melting point of 100 to 102 °C. Molecule `COc1cccc2cc(C(=O)c3ccc(Cl)c(N)c3)oc12` showed a melting point of 180 °C. `CCCCCC(C)N(C=C1C(=O)OC(C)(CNc2cc(C(C)(C)C)c(O)c(C(C)(C)C)c2)OC1=O)Cc1ccc(CC(C)(C)C)s1` (centres undefined): the melting point fell in the range of 184 to 185 °C. `COCCc1nc2c(N)nc3ccccc3c2n1CCCCNC(=O)c1c[nH]c2ccccc12` displayed a melting point of 226 to 227 °C. With `N#CN1CCC(C2c3ccccc3NN2c2ccccc2Cl)CC1` (centres undefined) the figure was 109 to 111 °C; with `Cc1cc(N2CCc3ncccc3C2)nc(N2CCCC2)c1NC(=O)Cc1cc(F)cc(F)c1`, 203 to 206 °C; with `CCOC(=O)C1=C(c2ccccc2)Nc2n[nH]cc2C1c1cccc(Cl)c1Cl` (centres undefined), 214 °C.

`COC(=O)CCCC#CCn1c(-c2ccccc2)c(-c2ccccc2)n(-c2ccccc2)c1=O` had a melting point of 133 to 134 °C.

With `Clc1ccc(-c2cc(Cl)c3cc(Cl)ccc3n2)cc1`, the melting point lay within 204 to 208 °C.

`CCOC(=O)C1=Cc2cc(Cl)cnc2NC1C(F)(F)F` (centres undefined) yielded a melting point of 180 to 182 °C. The value for `Cc1ccc(N2CCN(c3cc4c(ncc5c4c(=O)c(C(=O)O)cn5C)c(F)c3Cl)CC2)cc1F` was 360 °C. `O=C(OCC(O)c1ccccc1)c1ccc(-c2ccc(OCCCCCCO)cc2)cc1` (centres undefined) gave a melting point of 148 to 150 °C.

As for `O=C(O)CCSC(c1ccccc1CCCCCCCCc1ccccc1)C(O)C(=O)O` (centres undefined), the melting point lay within 91 to 92 °C. The molecule `O=C(CCCCCS(=O)(=O)Nc1ccccc1)NO` had a melting point of 97 to 98 °C.

Consider `COc1ccc([N+](=O)[O-])cc1N1CCNCC1`, for which the melting point lay within 84 to 87 °C.

As to `Nc1ncc(-c2ccc([N+](=O)[O-])cc2-c2cccc(Cl)c2Cl)c(N)n1`, the melting point fell in the range of 237 to 239 °C. For the molecule `Cc1ccc(Oc2c(N3C(C)CCC3C)cc(C(=O)O)cc2S(N)(=O)=O)cc1` (centres undefined), the melting point was in the range of 191 to 193 °C. `CC(C)n1c(=O)n(C)c(=O)c2c(S(=O)CCCO)n(C3Cc4ccccc4C3)cc21` (centres undefined) showed a melting point of 164 to 165 °C. With `O=c1[nH]c2ccc(Cl)cc2n1CCCCl` the figure was 122 °C. The value for `Clc1ccc([C@H]2Cc3cnc(Nc4ccccc4)nc3-c3ccccc32)cc1Cl` was 156 to 157 °C; that for `COc1ccc(-c2cnc3cc(OC)c(OC)cc3c2)cn1` was 170 to 172 °C.

In turn, `CN1CCC(C2=C(C#N)C(c3cccc(C#N)c3Br)c3c[nH]nc3N2)CC1` (centres undefined) yielded a melting point of more than 270 °C. Turning to `O=C(Nc1nc(-c2ccccc2)c(-c2nc3ccccc3c(=O)n2-c2ccc(Cl)cc2)s1)c1ccccc1`, the melting point is more than 275 °C. On to `CC(C)(C)NC(=O)c1nc(Cl)c(Cl)[nH]1`, for which the melting point is 218 °C. The value for `COc1ncccc1-c1cc(F)c(F)c(OC2SCC(O)C(O)C2O)c1` (centres undefined) was 127 °C; that for `O=C1Cc2cccc(Oc3ccccc3)c2O1` was 60 to 61 °C; that for `CCOC(=O)C=Cc1cc(C=CC(N)=O)cc(C(O)c2ccc(F)cc2)c1` (centres undefined) was 197 to 199 °C. `NC(=O)C(Sc1ccccc1)c1cccc(C(=O)c2ccc(Cl)cc2)c1N` (centres undefined): the melting point was 189 to 191 °C. `Nc1ccccc1-c1cccc(C(=O)O)c1` showed a melting point of 170 °C.

The molecule `CC1(C)OC(=O)Nc2ccc(-c3cccc(F)c3)cc21` showed a melting point of 181 to 182 °C. The value for `Cc1ccc2c(c1)SC(c1ccc(OCCCCBr)cc1)C(=O)N2C` (centres undefined) was 75 to 76 °C; that for `CCCCc1nc(C(=O)OC)c(C(=O)OC)[nH]1` was 88 °C. For `C=CCOC(=O)N1CCC[C@@H](OC)[C@@H]1CC(=O)Cn1cnc2cc(Cl)c(Oc3ccc(Cl)cc3)cc2c1=O` (relative stereo), the melting point lay in the range of 138 to 141 °C. With `Cc1c([N+](=O)[O-])ccnc1C(=O)NCCNC(=O)OC(C)(C)C` the figure was 133 to 134 °C. The molecule `Cc1nc2c(N)nc3ccccc3c2n1CCCCNC(=O)C1CCCC1` returned a melting point of 169 to 170 °C. The value for `O=c1cc2c(nn1-c1ccc(Cl)cc1)-c1cc(F)ccc1S(=O)CC2` (centres undefined) was 233 to 235 °C; that for `CC(=O)C1=NN(c2ccc(C(=O)O)c(Cl)c2)C(=O)C1` was more than 250 °C; that for `Cc1cccc(CCOc2cccc(-c3cccc(C(=O)O)c3)n2)c1` was 125 to 126 °C. `O=C(Nc1n[nH]c2cc(Cl)ccc12)c1ccccc1` displayed a melting point of 188 °C.

Turning to `Cc1cncn1Cc1cc(C(C)(C)O)cc(C(C)(C)C#N)c1`, the melting point was 128 to 131 °C. `COc1ccc(Cc2oc3ccc(O)cc3c2C)cc1` showed a melting point of 128 to 131 °C. The molecule `Nc1nc2ccccc2c2c1nc(CCO)n2CC1(O)CCOCC1` showed a melting point of 237 to 238 °C.

The molecule `N#CNC(=NC1CCN(Cc2ccccc2)CC1)N1CCc2ccccc2CC1` had a melting point of 192 to 194 °C.

Molecule `COc1cc2c(c(Cl)c1Cl)C(=O)C(c1ccccc1)(C1CCCC1)C2` (centres undefined) came in with a melting point of 105 to 108 °C.

`CSCON=C(C(=O)O)c1nccc(NC=O)n1` gave a melting point of 80 to 85 °C. As to `COc1ccc2c(c1)C(=O)N(C)CC(CCCl)O2` (centres undefined), the melting point is 98 to 100 °C. In turn, `N#Cc1ncn2c(C(F)(F)F)cc(-c3ccccn3)nc12` had a melting point of 205 °C.

For the molecule `Nc1cccc(-c2ccc(CCN3Cc4ccccc4C3)cc2)n1`, the melting point lay within 140 to 143 °C. With `O=C(O)CCc1ccc(OCCN2CCCC2=O)cc1Oc1ncc(C(F)(F)F)cc1Cl` the figure was 145 to 146 °C. In the case of `O=[N+]([O-])c1ccc(Oc2ccc(C(F)(F)F)cc2Cl)cc1[N+](=O)[O-]`, the melting point was 80 to 81 °C. The molecule `COC(=O)/C=C/c1c(F)cc2nn(C)cc2c1C(=O)OC` registered a melting point of 130 to 132 °C. The value for `FC(F)=C(F)CCSc1nnc(-c2ccc(Cl)cc2)s1` was 68 to 69 °C; that for `Cc1cccc(CNC(=O)c2ccc3n2Cc2ccccc2N(C(=O)c2ccc(-c4ccccc4C)c(C)c2)C3)c1` was 130 to 132 °C; that for `CC(C)c1ccc2c(c1)C(=O)c1ccc(C(=O)O)cc1CC2` was 178 to 182 °C. The molecule `CCCCC(C(C)C)C(CN)CC(=O)O` (centres undefined) gave a melting point of 160 to 170 °C.

Molecule `COc1ncnc2nc(-c3ccccc3)cnc12` displayed a melting point of 205 to 207 °C.

In turn, `C=CC(=O)OCCN(CCOC(=O)C=C)c1ccc(N=Nc2snc(C)c2C#N)c(NC(=O)C(C)C)c1` yielded a melting point of 92 to 94 °C. The value for `CC(C)(Cc1cc([N+](=O)[O-])c(F)cc1Cl)C(=O)O` was 102 to 104 °C; that for `CCOC(=O)c1c(SC)nc(-c2ccc(SC)cc2)n(-c2ccc(F)cc2)c1=O` was 151 to 155 °C; that for `Cc1cc2c(-c3ccccc3)c3n(c(=O)c2cc1C)CCCC3O` (centres undefined) was 210 to 212 °C. The value for `CSc1ccc2ccc(C(=O)O)cc2c1` was 217 °C; that for `O=C1NC(=Cc2ccc(Cl)cc2)C(=O)C1=NO` was 190 °C; that for `CCOC(=O)c1cc(C)cc(-c2ccc(NC(=O)OCc3ccccc3)cc2)n1` was 184 to 185 °C.

On to `Cc1cc(COC2=NS(=O)(=O)c3ccccc32)sn1`, for which the melting point fell in the range of 202 to 204 °C. `CC1CCc2cc(F)cc3c(=O)c(C(=O)NN)cn1c23` (centres undefined) showed a melting point of 236 to 238 °C.

`Nc1cccc2c(-c3ccccc3)c([N+](=O)[O-])oc12` had a melting point of 164 to 166 °C. The value for `COC(=O)c1c(Cl)cc(Cl)cc1NC(=O)CSc1ccccc1C` was 93 to 94 °C. With `CCCN(CCC)C(=O)Cn1c(-c2ccc(OC)cc2)nc2cccnc21`, the melting point fell in the range of 127 to 129 °C. In turn, `N#Cc1cccc(-c2ccc(=O)n(Cc3cccc(-c4ncc(Br)cn4)c3)n2)c1` displayed a melting point of 178 to 179 °C. For `O=C(CC(=O)OCc1ccccc1)OCc1ccccc1`, the melting point lay in the range of 104 to 106 °C. In turn, `CCOC(=O)C1C(c2ccc([N+](=O)[O-])cc2)CC(=O)N1C` (centres undefined) showed a melting point of 142 to 143 °C.

`COc1cc2c(cc1Cl)C(O)(c1ccccc1Cl)C(=O)N2` (centres undefined) had a melting point of 237 to 240 °C.

Molecule `Cc1ccc(SCc2c(C(C)C)nc(C(C)C)c(CO)c2-c2ccc(F)cc2)cc1` had a melting point of 90 to 91 °C.

As a reminder, the melting point is the temperature of the solid-liquid transition.
